Measurements reported in patent US20250170136A1, “1,2,4-TRIAZIN-3(2H)-ONE COMPOUNDS FOR THE TREATMENT OF HYPERPROLIFERATIVE DISEASES” (BAYER AKTIENGESELLSCHAFT, priority 2019, published 2025).

Assays:
SK-MEL-3 cells = experiment: Cell proliferation measurement (CellTiter-Glo, 72 h); type: cell-based; settings: Homo sapiens, SK-MEL3; anti-proliferation, SK-MEL-3, 72 h
Method: (§1) The antiproliferative activity of the compounds of the general formula (I) was examined in vitro in human cancer cells. […] After 24 h, cells on one plate (0 h plate) were treated with 30 μl/cavity of CTG solution (Promega Cell Titer Glo (catalogue #G755B and G756B)) and incubated at room temperature for 10 min, and luminescence was measured by means of a VICTOR V (Perkin Elmer), in order to determine cell viability on commencement of treatment. The cells on the test plate were treated with the compounds of the general formula (I) as and incubated at 37° C. for 72 h. The compounds were added to the cells by means of an HP D300 digital dispenser in a 10-step 2,5-fold dilution series generally starting at a maximum final drug concentration of 100 nM, or 30 μM in the case of COV318. As control, the cells were treated with vehicle (DMSO at 0.3% final concentration). After 72 h, the cells were treated with 30 μl/cavity of CTG solution (Promega Cell Titer Glo (catalogue #G755B and G756B)) and incubated at room temperature for 10 min, and luminescence was measured by means of a VICTOR V (Perkin Elmer), in order to determine cell viability at the end of treatment. The percentage effect on cell growth and the IC50 derived therefrom were determined for each test substance using the values from the 0 h plate (=maximum inhibition) and the DMSO control (=minimum inhibition). The IC50 values were calculated using a 4-parameter fit.

HeLa cells = experiment: as above; type: cell-based; settings: Homo sapiens, anti-proliferation
Method: as §1

human full length PDE3A = human full length PDE3A (Homo sapiens (Human), UniProt Q14432); experiment: PDE3A enzyme inhibition (3H-cAMP Scintillation Proximity Assay); type: biochemical; settings: Sf9 cell extract, 60 min room temperature
Method: (§2) The commercially available 3H-cAMP Scintillation Proximity Assay (SPA, Perkin Elmer) system was used for enzyme inhibition studies. For the determination of the in vitro effect of example compounds on the PDE3A reactions 2 μl of the respective example compound solution in DMSO (serial dilutions) were placed in wells of microtiter plates (Isoplate-96/200W; Perkin Elmer). 50 μl of a dilution of PDE3A cell extract from Sf9 cells overexpressing human full length PDE3A (SB Drug Discovery, UK) in buffer A (50 mM Tris/HCl pH 7.5, 8.3 mM MgCl2, 1.7 mM EDTA, 0.2% BSA) was added. The dilution of the PDE3A cell extract was chosen such that the reaction kinetics was linear and less than 70% of the substrate was consumed (typical dilution 1:5000). The reaction was started by addition of 50 μl (0.025 μCi) of 1:2000 in buffer A w/o BSA diluted substrate [8-3H]adenosine 3′, 5′-cyclic phosphate (1 μCi/μl; Perkin Elmer). After incubation at room temperature for 60 min, the reaction was stopped by addition of 25 μl of a suspension containing 18 mg/ml yttrium scintillation proximity beads (Perkin Elmer) in water. The microtiter plates were sealed and measured in a Microbeta scintillation counter (PerkinElmer Wallac). IC50 values were determined from sigmoidal curves by plotting percentage PDE3A activity vs log compound concentration.

human full length PDE3B = human full length PDE3B (Homo sapiens (Human), UniProt Q13370); experiment: PDE3B enzyme inhibition (3H-cAMP Scintillation Proximity Assay); type: biochemical; settings: Sf9 cell extract, 60 min room temperature
Method: as §2, with “PDE3B” for “PDE3A”, “1:6000).” for “1:5000).”

human full length PDE3B, sequence (Q13370 whole entry): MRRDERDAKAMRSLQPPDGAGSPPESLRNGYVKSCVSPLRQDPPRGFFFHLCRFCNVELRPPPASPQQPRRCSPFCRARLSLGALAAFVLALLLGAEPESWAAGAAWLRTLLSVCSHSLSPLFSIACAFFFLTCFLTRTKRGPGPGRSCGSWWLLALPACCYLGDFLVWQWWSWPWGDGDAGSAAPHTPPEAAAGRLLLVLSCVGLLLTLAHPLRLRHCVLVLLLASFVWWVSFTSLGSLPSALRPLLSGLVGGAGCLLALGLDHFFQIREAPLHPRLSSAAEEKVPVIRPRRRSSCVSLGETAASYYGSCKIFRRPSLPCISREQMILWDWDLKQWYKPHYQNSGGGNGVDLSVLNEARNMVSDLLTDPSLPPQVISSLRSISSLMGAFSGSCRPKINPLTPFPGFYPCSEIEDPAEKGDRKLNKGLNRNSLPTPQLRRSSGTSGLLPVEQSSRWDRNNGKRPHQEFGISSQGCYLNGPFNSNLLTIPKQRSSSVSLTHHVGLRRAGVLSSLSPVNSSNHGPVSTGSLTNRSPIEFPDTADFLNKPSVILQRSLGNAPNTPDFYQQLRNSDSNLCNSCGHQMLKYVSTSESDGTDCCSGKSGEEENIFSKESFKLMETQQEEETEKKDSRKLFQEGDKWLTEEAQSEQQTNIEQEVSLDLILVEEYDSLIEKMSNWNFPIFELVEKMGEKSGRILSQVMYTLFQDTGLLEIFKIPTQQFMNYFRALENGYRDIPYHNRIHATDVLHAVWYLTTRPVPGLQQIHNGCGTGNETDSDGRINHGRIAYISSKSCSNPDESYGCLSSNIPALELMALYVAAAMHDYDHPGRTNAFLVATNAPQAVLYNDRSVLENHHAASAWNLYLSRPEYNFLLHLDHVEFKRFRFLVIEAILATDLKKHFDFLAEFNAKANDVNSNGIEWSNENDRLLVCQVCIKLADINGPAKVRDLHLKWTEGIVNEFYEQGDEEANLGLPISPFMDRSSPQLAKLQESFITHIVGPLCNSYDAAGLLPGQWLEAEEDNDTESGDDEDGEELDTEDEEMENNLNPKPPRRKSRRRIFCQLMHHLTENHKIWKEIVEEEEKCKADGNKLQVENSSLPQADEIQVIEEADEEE
human full length PDE3A, sequence (Q14432 whole entry): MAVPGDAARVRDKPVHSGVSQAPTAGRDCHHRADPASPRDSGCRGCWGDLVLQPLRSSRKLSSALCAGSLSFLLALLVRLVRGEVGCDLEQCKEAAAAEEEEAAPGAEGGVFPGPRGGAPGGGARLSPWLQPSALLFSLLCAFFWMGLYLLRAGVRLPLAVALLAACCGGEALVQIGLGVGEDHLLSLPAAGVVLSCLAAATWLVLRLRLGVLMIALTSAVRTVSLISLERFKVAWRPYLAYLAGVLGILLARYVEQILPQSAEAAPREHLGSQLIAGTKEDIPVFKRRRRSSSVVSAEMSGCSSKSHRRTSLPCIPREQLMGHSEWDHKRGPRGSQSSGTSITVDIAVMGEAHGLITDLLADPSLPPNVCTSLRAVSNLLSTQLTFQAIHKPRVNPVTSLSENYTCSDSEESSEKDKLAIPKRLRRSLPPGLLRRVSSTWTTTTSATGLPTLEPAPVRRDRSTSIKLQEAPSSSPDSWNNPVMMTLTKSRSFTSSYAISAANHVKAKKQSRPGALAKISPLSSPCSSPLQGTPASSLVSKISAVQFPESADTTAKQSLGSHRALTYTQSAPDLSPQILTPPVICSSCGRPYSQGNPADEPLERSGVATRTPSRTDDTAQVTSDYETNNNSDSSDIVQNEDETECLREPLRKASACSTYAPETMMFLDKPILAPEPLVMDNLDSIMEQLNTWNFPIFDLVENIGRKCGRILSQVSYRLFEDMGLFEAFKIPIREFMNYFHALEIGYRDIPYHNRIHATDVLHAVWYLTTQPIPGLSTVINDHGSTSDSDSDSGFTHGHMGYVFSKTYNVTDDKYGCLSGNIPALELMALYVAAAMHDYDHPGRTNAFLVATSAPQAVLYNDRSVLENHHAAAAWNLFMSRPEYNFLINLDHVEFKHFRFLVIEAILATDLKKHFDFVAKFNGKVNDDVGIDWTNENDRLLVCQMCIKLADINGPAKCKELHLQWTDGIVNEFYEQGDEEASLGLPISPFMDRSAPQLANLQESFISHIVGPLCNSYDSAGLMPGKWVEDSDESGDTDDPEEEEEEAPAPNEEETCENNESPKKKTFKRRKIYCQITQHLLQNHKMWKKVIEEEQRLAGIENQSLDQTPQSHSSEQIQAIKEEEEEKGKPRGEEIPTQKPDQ

Work on `C[C@@H]1NC(=O)NN=C1c1ccc(NCc2cnccn2)c(C(F)(F)F)c1` [Example 6, (5S)-5-methyl-6-[4-{[(pyrazin-2-yl)methyl]amino}-3-(trifluoromethyl)phenyl]-4,5-dihydro-1,2,4-triazin-3(2H)-one] yielded an IC50 (SK-MEL-3 cells) of 0.7 nM, an IC50 (HeLa cells) of 0.3 nM and an IC50 (human full length PDE3A) of 4 nM. It also gave an IC50 (human full length PDE3B) of 5 nM.
`C[C@@H]1NC(=O)NN=C1c1ccc(N2CC(C)(O)C2)c(C(F)(F)F)c1` [Example 3, (5S)-6-[4-(3-hydroxy-3-methylazetidin-1-yl)-3-(trifluoromethyl)phenyl]-5-methyl-4,5-dihydro-1,2,4-triazin-3(2H)-one] was tested, and the IC50 (SK-MEL-3 cells) was 0.3 nM, the IC50 (HeLa cells) was 0.1 nM and the IC50 (human full length PDE3A) was 2 nM. The IC50 (human full length PDE3B) was 1 nM.
For `C[C@@H]1NC(=O)NN=C1c1ccc(NC[C@@H](O)C(F)(F)F)c(C(F)(F)F)c1` [Example 5, (5S)-5-methyl-6-[4-{[(2R)-3,3,3-trifluoro-2-hydroxypropyl]amino}-3-(trifluoromethyl)phenyl]-4,5-dihydro-1,2,4-triazin-3(2H)-one], the IC50 (SK-MEL-3 cells) was 0.6 nM, the IC50 (HeLa cells) was 0.2 nM and the IC50 (human full length PDE3A) was 4 nM. It also gave an IC50 (human full length PDE3B) of 5 nM.
`C[C@@H]1NC(=O)NN=C1c1ccc(NC2CCCC2)c(C(F)(F)F)c1` [Example 4, (5S)-6-[4-(cyclopentylamino)-3-(trifluoromethyl)phenyl]-5-methyl-4,5-dihydro-1,2,4-triazin-3(2H)-one] was tested, and the IC50 (SK-MEL-3 cells) was 0.4 nM, the IC50 (HeLa cells) was 0.1 nM and the IC50 (human full length PDE3A) was 2 nM. The IC50 (human full length PDE3B) was 1 nM.
`C[C@@H]1NC(=O)NN=C1c1ccc(NCc2ccn[nH]2)c(C(F)(F)F)c1` [Example 2, (5S)-5-methyl-6-[4-{[(1H-pyrazol-5-yl)methyl]amino}-3-(trifluoromethyl)phenyl]-4,5-dihydro-1,2,4-triazin-3(2H)-one] was tested, and the IC50 (SK-MEL-3 cells) was 0.3 nM, the IC50 (HeLa cells) was 0.7 nM and the IC50 (human full length PDE3A) was 5 nM. The IC50 (human full length PDE3B) was 6 nM.
